Measurements as given in US8624034B2, “Fluoro-pyridinone derivatives useful as antibacterial agents” (Pfizer Inc., priority 2011, dated 2014).
In brackets after ≈: the same amount, converted by molar mass. Several values for one entry are separate records, joined by “and”; a condition that tells them apart may be missing. Equal values may be shown once. Read-outs that look alike come from different tables or passages of the source.

Key:
[1] = target: T1, Pseudomonas aeruginosa LpxC enzyme (Pseudomonas aeruginosa, UniProt P47205); assay: IC50 assay, LpxC enzyme from P. aeruginosa (PA LpxC enzyme IC50); type: biochemical; conditions: LpxC enzyme 0.1 nM, 25° C., 1 hour
T1 construct: made in house; host or cells: E. coli
T1 sequence (P47205 1-303): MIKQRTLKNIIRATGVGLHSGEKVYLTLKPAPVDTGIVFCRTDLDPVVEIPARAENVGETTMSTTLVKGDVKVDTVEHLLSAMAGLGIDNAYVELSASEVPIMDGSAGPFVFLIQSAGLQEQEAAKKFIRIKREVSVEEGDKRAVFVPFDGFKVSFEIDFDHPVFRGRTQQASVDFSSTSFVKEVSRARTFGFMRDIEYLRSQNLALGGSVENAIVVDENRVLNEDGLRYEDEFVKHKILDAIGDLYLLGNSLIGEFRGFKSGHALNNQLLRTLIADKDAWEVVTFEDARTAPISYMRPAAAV
Procedure, shortened: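 IC50 values came from percent conversion, referenced to a no-enzyme control. Conversion was read by RapidFire HTMS mass spectrometry after HCl quench of the 1 h enzyme reaction.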

[2] = test system: Acinetobacter baumannii/haemolyticus, multidrug-resistant clinical isolate (AB-3167); assay: MIC determination, AB-3167; type: cell-based; conditions: Table 3, lower of duplicate values
Procedure, shortened: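 MIC read visually after overnight growth across 2-fold concentration steps in the CLSI dilution method against the multidrug-resistant clinical isolate. Duplicate determinations, lower value reported when within 2-fold, otherwise repeated; every run checked with control organisms and reference drugs.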

[3] = test system: Escherichia coli EC-1: VOGEL, mouse virulent; assay: MIC determination, EC-1; type: cell-based; conditions: for MIC: Escherichia coli, read-out: EC-1 (MIC), Table 3, lower of duplicate values
Procedure, shortened: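 Duplicate runs differing by more than 2-fold were repeated, and otherwise the lower MIC was kept. The test organism was E. coli EC-1 (VOGEL, mouse virulent), incubated overnight across 2-fold compound dilutions following CLSI guidelines. The MIC was read visually as the lowest concentration inhibiting growth relative to drug-free control.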

PA:UC12120 = assay: MIC determination, PA:UC12120 (Table 3); type: cell-based, Pseudomonas aeruginosa; conditions: for MIC: Pseudomonas aeruginosa, UC12120, Table 3, lower of duplicate values
Procedure, shortened: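 CLSI broth dilution MIC with 2-fold concentration steps, overnight incubation; MIC is the lowest concentration visibly inhibiting growth versus drug-free control. Run in duplicate, lower value reported when within 2-fold; control organisms and reference compounds required within defined ranges.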

[4] = Table 3, lower of duplicate values

CC(CCn1cc(F)c(-c2ccc(C#N)c(F)c2)cc1=O)(C(=O)NO)S(C)(=O)=O (stereo not shown) [Example 58, 4-[4-(4-cyano-3-fluorophenyl)-5-fluoro-2-oxopyridin-1(2H)-yl]-N-hydroxy-2-methyl-2-(methylsulfonyl)butanamide]
IC50 ([1]; Table 3, read-out: PA:IC50): 2.6 nM
MIC [2]: > 64 µg/mL
MIC [3]: 32 µg/mL (≈ 75.2 µM)
MIC (PA:UC12120): 8 µg/mL (≈ 18.8 µM)

CC(CCn1cc(F)c(-c2ccc(Cl)cc2)cc1=O)(C(=O)NO)S(C)(=O)=O (stereo not shown) [Example 107, 4-[4-(4-chlorophenyl)-5-fluoro-2-oxopyridin-1(2H)-yl]-N-hydroxy-2-methyl-2-(methylsulfonyl)butanamide]
IC50 ([1]; Table 3, read-out: PA:IC50): 1 nM
MIC [2]: > 64 µg/mL
MIC [3]: 1 µg/mL (≈ 2.4 µM)
MIC (PA:UC12120): 0.25 µg/mL (≈ 0.6 µM)

COc1ccc(-c2cc(=O)n(CCC(C)(C(=O)NO)S(C)(=O)=O)cc2F)cn1 (stereo not shown) [Example 89, 4-(5′-fluoro-6-methoxy-2′-oxo-3,4′-bipyridin-1′(2′H)-yl)-N-hydroxy-2-methyl-2-(methylsulfonyl)butanamide]
IC50 ([1]; Table 3, read-out: PA:IC50): 3.1 nM
MIC [2]: > 64 µg/mL
MIC [3]: 8 µg/mL (≈ 19.4 µM)
MIC (PA:UC12120): 2 µg/mL (≈ 4.84 µM)

COc1cc(-c2cc(=O)n(CCC(C)(C(=O)NO)S(C)(=O)=O)cc2F)cnc1OC (stereo not shown) [Example 75, 4-(5′-fluoro-5,6-dimethoxy-2′-oxo-3,4′-bipyridin-1′(2′H)-yl)-N-hydroxy-2-methyl-2-(methylsulfonyl)butanamide]
IC50 ([1]; Table 3, read-out: PA:IC50): 45.4 nM
MIC [2]: > 64 µg/mL
MIC [3]: > 64 µg/mL
MIC (PA:UC12120): > 64 µg/mL

COc1ccc(-c2cc(=O)n(CCC(C)(C(=O)NO)S(C)(=O)=O)cc2F)cc1OC (stereo not shown) [Example 98, 4-[4-(3,4-dimethoxyphenyl)-5-fluoro-2-oxopyridin-1(2H)-yl]-N-hydroxy-2-methyl-2-(methylsulfonyl)butanamide]
IC50 ([1]; Table 3, read-out: PA:IC50): 28.5 nM
MIC [2]: > 64 µg/mL
MIC [3]: 64 µg/mL (≈ 145 µM)
MIC (PA:UC12120): 32 µg/mL (≈ 72.3 µM)

CC(CCn1cc(F)c(-c2ccc(F)cc2F)cc1=O)(C(=O)NO)S(C)(=O)=O (stereo not shown) [Example 97, 4-[4-(2,4-difluorophenyl)-5-fluoro-2-oxopyridin-1(2H)-yl]-N-hydroxy-2-methyl-2-(methylsulfonyl)butanamide]
IC50 ([1]; Table 3, read-out: PA:IC50): 1.2 nM
MIC [2]: > 64 µg/mL
MIC [3]: 4 µg/mL (≈ 9.56 µM)
MIC (PA:UC12120): 1 µg/mL (≈ 2.39 µM)

CC(CCn1cc(F)c(-c2ccc(O)nc2)cc1=O)(C(=O)NO)S(C)(=O)=O (stereo not shown) [Example 80, 4-(5′-fluoro-6-hydroxy-2′-oxo-3,4′-bipyridin-1′(2′H)-yl)-N-hydroxy-2-methyl-2-(methylsulfonyl)butanamide]
IC50 ([1]; Table 3, read-out: PA:IC50): > 100 nM
MIC [2]: > 64 µg/mL
MIC [3]: > 64 µg/mL
MIC (PA:UC12120): > 64 µg/mL

Cc1ccc2ccc(-c3cc(=O)n(CCC(C)(C(=O)NO)S(C)(=O)=O)cc3F)cc2n1 (stereo not shown) [Example 96, 4-[5-fluoro-4-(2-methylquinolin-7-yl)-2-oxopyridin-1(2H)-yl]-N-hydroxy-2-methyl-2-(methylsulfonyl)butanamide]
IC50 ([1]; Table 3, read-out: PA:IC50): 10.8 nM
MIC [2]: > 64 µg/mL
MIC [3]: 16 µg/mL (≈ 35.8 µM)
MIC (PA:UC12120): 32 µg/mL (≈ 71.5 µM)

CC(C)(C#N)c1ccc(-c2cc(=O)n(CCC(C)(C(=O)NO)S(C)(=O)=O)cc2F)cc1 (stereo not shown) [Example 60, 4-{4-[4-(1-cyano-1-methylethyl)phenyl]-5-fluoro-2-oxopyridin-1(2H)-yl}-N-hydroxy-2-methyl-2-(methylsulfonyl)butanamide]
IC50 ([1]; Table 3, read-out: PA:IC50): 3.9 nM
MIC [2]: > 64 µg/mL
MIC [3]: 32 µg/mL (≈ 71.2 µM)
MIC (PA:UC12120): 4 µg/mL (≈ 8.9 µM)

CCOc1ccc(-c2cc(=O)n(CCC(C)(C(=O)NO)S(C)(=O)=O)cc2F)cc1 (stereo not shown) [Example 76, 4-[4-(4-ethoxyphenyl)-5-fluoro-2-oxopyridin-1(2H)-yl]-N-hydroxy-2-methyl-2-(methylsulfonyl)butanamide]
IC50 ([1]; Table 3, read-out: PA:IC50): 1.1 nM
MIC [2]: > 64 µg/mL
MIC [3]: 0.25 µg/mL (≈ 0.586 µM)
MIC (PA:UC12120): 0.5 µg/mL (≈ 1.17 µM)

CC(CCn1cc(F)c(-c2ccc(F)cc2)cc1=O)(C(=O)NO)S(C)(=O)=O (stereo not shown) [Example 86, 4-[5-fluoro-4-(4-fluorophenyl)-2-oxopyridin-1(2H)-yl]-N-hydroxy-2-methyl-2-(methylsulfonyl)butanamide]
IC50 ([1]; Table 3, read-out: PA:IC50): 1.7 nM
MIC [2]: > 64 µg/mL
MIC [3]: 4 µg/mL (≈ 9.99 µM)
MIC (PA:UC12120): 1 µg/mL (≈ 2.5 µM)

COc1c(F)cc(-c2cc(=O)n(CCC(C)(C(=O)NO)S(C)(=O)=O)cc2F)cc1F (stereo not shown) [Example 62, 4-[4-(3,5-difluoro-4-methoxyphenyl)-5-fluoro-2-oxopyridin-1(2H)-yl]-N-hydroxy-2-methyl-2-(methylsulfonyl)butanamide]
IC50 ([1]; Table 3, read-out: PA:IC50): 2 nM and 3.1 nM
MIC [2]: > 64 µg/mL
MIC [3]: 4 µg/mL (≈ 8.92 µM)
EC-1 (MIC) [3, 4]: 8 µg/mL
MIC (PA:UC12120): 2 µg/mL (≈ 4.46 µM)
PA:UC12120 (MIC) (PA:UC12120; [4]): 1 µg/mL

CC(CCn1cc(F)c(-c2cnc(N3CCCC3)nc2)cc1=O)(C(=O)NO)S(C)(=O)=O (stereo not shown) [Example 106, 4-[5-fluoro-2-oxo-4-(2-pyrrolidin-1-ylpyrimidin-5-yl)pyridin-1(2H)-yl]-N-hydroxy-2-methyl-2-(methylsulfonyl)butanamide]
IC50 ([1]; Table 3, read-out: PA:IC50): 56.8 nM
MIC [2]: > 64 µg/mL
MIC [3]: 32 µg/mL (≈ 70.6 µM)
MIC (PA:UC12120): 64 µg/mL (≈ 141 µM)

CN(C)C(=O)c1ccc(-c2cc(=O)n(CCC(C)(C(=O)NO)S(C)(=O)=O)cc2F)cc1 (stereo not shown) [Example 68, 4-{5-fluoro-1-[4-(hydroxyamino)-3-methyl-3-(methylsulfonyl)-4-oxobutyl]-2-oxo-1,2-dihydropyridin-4-yl}-N,N-dimethylbenzamide]
IC50 ([1]; Table 3, read-out: PA:IC50): 34.3 nM
MIC [2]: > 64 µg/mL
MIC [3]: > 64 µg/mL
MIC (PA:UC12120): > 64 µg/mL

CC(CCn1cc(F)c(-c2cccnc2)cc1=O)(C(=O)NO)S(C)(=O)=O (stereo not shown) [Example 65, 4-(5′-fluoro-2′-oxo-3,4′-bipyridin-1′(2′H)-yl)-N-hydroxy-2-methyl-2-(methylsulfonyl)butanamide]
IC50 ([1]; Table 3, read-out: PA:IC50): 82.3 nM
MIC [2]: > 64 µg/mL
MIC [3]: > 64 µg/mL
MIC (PA:UC12120): 32 µg/mL (≈ 83.5 µM)

CN1Cc2cc(-c3cc(=O)n(CCC(C)(C(=O)NO)S(C)(=O)=O)cc3F)ccc2C1=O (stereo not shown) [Example 64, 4-[5-fluoro-4-(2-methyl-1-oxo-2,3-dihydro-1H-isoindol-5-yl)-2-oxopyridin-1(2H)-yl]-N-hydroxy-2-methyl-2-(methylsulfonyl)butanamide]
IC50 ([1]; Table 3, read-out: PA:IC50): 7.2 nM
MIC [2]: > 64 µg/mL
MIC [3]: > 64 µg/mL
MIC (PA:UC12120): 64 µg/mL (≈ 142 µM)

CCOc1ccc(-c2cc(=O)n(CCC(C)(C(=O)NO)S(C)(=O)=O)cc2F)cc1F (stereo not shown) [Example 95, 4-[4-(4-ethoxy-3-fluorophenyl)-5-fluoro-2-oxopyridin-1(2H)-yl]-N-hydroxy-2-methyl-2-(methylsulfonyl)butanamide]
IC50 ([1]; Table 3, read-out: PA:IC50): 1.2 nM
MIC [2]: 64 µg/mL (≈ 144 µM)
MIC [3]: 1 µg/mL (≈ 2.25 µM)
MIC (PA:UC12120): 2 µg/mL (≈ 4.5 µM)

CC(CCn1cc(F)c(-c2ccccc2)cc1=O)(C(=O)NO)S(C)(=O)=O (stereo not shown) [Example 78, 4-(5-fluoro-2-oxo-4-phenylpyridin-1(2H)-yl)-N-hydroxy-2-methyl-2-(methylsulfonyl)butanamide]
IC50 ([1]; PA:IC50, Table 3): 2.8 nM
MIC [2]: > 64 µg/mL
MIC [3]: 4 µg/mL (≈ 10.5 µM)
MIC (PA:UC12120): 1 µg/mL (≈ 2.61 µM)

COc1cc(-c2cc(=O)n(CCC(C)(C(=O)NO)S(C)(=O)=O)cc2F)ccc1C#N (stereo not shown) [Example 74, 4-[4-(4-cyano-3-methoxyphenyl)-5-fluoro-2-oxopyridin-1(2H)-yl]-N-hydroxy-2-methyl-2-(methylsulfonyl)butanamide]
IC50 ([1]; Table 3, read-out: PA:IC50): 5.9 nM
MIC [2]: > 64 µg/mL
MIC [3]: 64 µg/mL (≈ 146 µM)
MIC (PA:UC12120): 16 µg/mL (≈ 36.6 µM)

CN(C)Cc1ccc(-c2cc(=O)n(CCC(C)(C(=O)NO)S(C)(=O)=O)cc2F)cc1 (stereo not shown) [Example 79, 4-[4-{4-[(dimethylamino)methyl]phenyl}-5-fluoro-2-oxopyridin-1(2H)-yl]-N-hydroxy-2-methyl-2-(methylsulfonyl)butanamide]
IC50 ([1]; Table 3, read-out: PA:IC50): 35.9 nM
MIC [2]: > 64 µg/mL
MIC [3]: > 64 µg/mL
MIC (PA:UC12120): 16 µg/mL (≈ 36.4 µM)
